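The compound was tested at five concentrations on cells cultured in 96-well plates, with a 48-hour exposure period. TGI: concentration producing complete growth inhibition.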
How the values were obtained:
Assay in all cases: growth of human tumour cells (NCI), 48 h
[1] = tested on: MCF7 breast
[2] = tested on: HL-60(TB) leukemia
[3] = tested on: HCT-116 colon
[4] = tested on: LOX IMVI melanoma
[5] = tested on: SNB-19 CNS
[6] = tested on: UO-31 renal
[7] = tested on: MDA-MB-435
[8] = tested on: T-47D breast
[9] = tested on: SK-MEL-2 melanoma
[10] = tested on: KM12 colon
[11] = tested on: MDA-N
[12] = tested on: TK-10 renal
[13] = tested on: COLO 205 colon
[14] = tested on: CAKI-1 renal
[15] = tested on: SN12C renal
[16] = tested on: SF-539 CNS

Compound	TGI [1] [µM]	TGI [2] [µM]	TGI [3] [µM]	TGI [4] [µM]	TGI [5] [µM]	TGI [6] [µM]	TGI [7] [µM]	TGI [8] [µM]	TGI [9] [µM]	TGI [10] [µM]	TGI [11] [µM]	TGI [12] [µM]	TGI [13] [µM]	TGI [14] [µM]	TGI [15] [µM]	TGI [16] [µM]
C1CNOCCCONCCCNOCCCONC1	> 100	> 100	> 100	> 100	> 100	> 100	> 100	44.4	> 100	> 100	> 100	84.5	> 100	> 100	> 100	–
CC1(C)C2CCC3CC(CCC#N)CCC3C21C#N (stereo unspecified)	> 100	> 100	> 100	> 100	> 100	> 100	> 100	> 100	> 100	> 100	> 100	> 100	> 100	> 100	> 100	> 100
CSc1ncnc2c1cnn2Cc1cnnn1COCC(O)CO (stereo unspecified)	> 100	> 100	> 100	> 100	> 100	> 100	> 100	> 100	> 100	> 100	> 100	> 100	> 100	> 100	> 100	> 100
CCOC(=O)C(NC(=O)OCc1ccccc1)C(=O)O (stereo unspecified)	> 100	> 100	> 100	> 100	> 100	> 100	> 100	> 100	> 100	> 100	> 100	> 100	> 100	> 100	> 100	> 100
CCOC1OC(CO)C(O)CC1n1ccc(=O)[nH]c1=O (stereo unspecified)	> 100	–	> 100	> 100	> 100	> 100	> 100	> 100	> 100	> 100	> 100	> 100	> 100	> 100	> 100	> 100
COC(=O)c1ccc2c(c1)CC1(C2)Cc2cc3c(cc2C1)CCC3	> 100	> 100	> 100	> 100	> 100	> 100	> 100	> 100	> 100	–	> 100	> 100	–	> 100	–	> 100
CCS(=O)C(=O)N(O)c1ccc(Cl)cc1 (stereo unspecified)	50.9	–	> 100	53.1	> 100	46.7	30	> 100	56.7	47.2	41.4	> 100	> 100	38.5	43	52.8
CCOC(=O)N/N=C(/N)c1cccc(Br)c1	> 100	> 100	> 100	> 100	> 100	> 100	–	> 100	> 100	> 100	> 100	> 100	> 100	> 100	> 100	> 100
